Source: patent US20130204033A1, “ANTIPROLIFERATIVE COMPOUNDS, CONJUGATES THEREOF, METHODS THEREFOR, AND USES THEREOF” (Medarex, Inc., priority 2009, published 2013)

Experiments:
Type in all cases: cell-based, human
[1] = system: RPMI-8226; test: ATP luminescence proliferation assay, RPMI-8226; details: ATP luminescence, RPMI-8226, 72 h incubation; read-out: EC50 RPMI-8226 (72 h)
Procedure: (§1) This example generally describes the procedures used to assay the antiproliferative activity of compounds of this invention or their conjugates. Human tumor cell lines were obtained from the American Type Culture Collection (ATCC), P.O. Box 1549, Manassas, Va. 20108, USA, and cultured according to instruction from the ATCC. Cells were seeded at 1.0×10^3 or 1.0×10^4 cells/well in 96-well plates for 3 h for ATP assays or ^3H thymidine assays, respectively. 1:3 serial dilutions of free (unconjugated) compounds or their conjugates were added to the wells. Plates were allowed to incubate for 24 to 72 h. The ^3H thymidine plates were pulsed with 1.0 μCi of ^3H-thymidine per well for the last 24 hours of the total incubation period, harvested, and read on a Top Count Scintillation Counter (Packard Instruments, Meriden, Conn.). ATP levels in the ATP plates were measured using the […]-GLO® Luminescent Cell Viability kit following the manufacturer's manual and read on a GLOMAX® 20/20 luminometer (both from Promega, Madison, Wis., USA). The EC50 values—the concentration at which an agent inhibits or reduces cell proliferation by 50% —were determined using PRISM™ software, version 4.0 (GraphPad Software, La Jolla, Calif., USA).
(§2) Using the ^3H thymidine or the ATP luminescence assay, or both, the activities of compounds of this invention were assayed against the following cancer cell lines: HCT-15 (colorectal cancer, multi-drug resistant (MDR)); Hep3B (liver cancer); LNCaP (prostate cancer, androgen receptor positive (AR^+)); MDA-MB-231 (breast cancer, estrogen receptor, progesterone receptor, and Her2 negative (triple negative)); A2058 (melanoma); U-87 MG (glioblastoma); NCI-H460 (NSCLC); A549 (NSCLC); HPAC (pancreatic cancer, primary); PC3 (prostate cancer, AR); BT474 (breast cancer, Her2 highly positive (Her2hi)); SKOV3 (ovarian cancer, Her2hi); 786-O (renal cancer); UO-31 (renal cancer, MDR); NCI-H740 (SCLC); DMS53 (SCLC); SK-BR3 (breast cancer, Her2hi); ZR-75 (breast cancer, estrogen receptor positive); OVCAR3 (ovarian cancer); HL-60 (APL); OVCAR8/Adr (ovarian cancer, MDR); CEM-Cl (ALL); Nomo-1 (AML); RPMI-8226 (MM)); Raji (lymphoma); SW-480 (colorectal cancer, metastatic); SW-620 (colorectal cancer); and H226 (lung cancer). (Not all compounds were assayed against all cell lines.)
(§3) Table 3 provides the data for the ATP luminescence proliferation assays, with an incubation period of 48, 72, or 96 h, as noted.

[2] = system: BT474; test: 3H thymidine proliferation assay, BT474; details: 3H thymidine method, 72 h incubation; read-out: EC50, BT474
Procedure: as §1, §2
(§4) Table 2 provides the data for proliferation assays using the ^3H thymidine method, with an incubation period of 72 h.

[3] = system: HL-60; test: 3H thymidine proliferation assay, HL-60; details: 3H thymidine method, 72 h incubation; read-out: EC50, HL-60
Procedure: as §1, §2, §4

[4] = system: 786-O; test: 3H thymidine proliferation assay, 786-O; details: 3H thymidine method, 72 h incubation; read-out: EC50, 786-O
Procedure: as §1, §2, §4

[5] = system: SKOV3; test: 3H thymidine proliferation assay, SKOV3; details: 3H thymidine method, 72 h incubation; read-out: EC50, SKOV3
Procedure: as §1, §2, §4

[6] = system: SKOV3; test: ATP luminescence proliferation assay, SKOV3; details: ATP luminescence, SKOV3, 48 h incubation; read-out: EC50 SKOV3 (48 h)
Procedure: as §1, §2, §3

[7] = system: BT474; test: ATP luminescence proliferation assay, BT474; details: ATP luminescence
Procedure: as §1, §2, §3

[8] = system: PC3; test: 3H thymidine proliferation assay, PC3; details: 3H thymidine method, 72 h incubation; read-out: EC50, PC3
Procedure: as §1, §2, §4

[9] = system: ZR-75; test: 3H thymidine proliferation assay, ZR-75; details: 3H thymidine method, 72 h incubation; read-out: EC50, ZR-75
Procedure: as §1, §2, §4

[10] = system: Nomo-1; test: ATP luminescence proliferation assay, Nomo-1; details: ATP luminescence, Nomo-1, 72 h incubation; read-out: EC50 Nomo-1 (72 h)
Procedure: as §1, §2, §3

[11] = system: DMS53; test: 3H thymidine proliferation assay, DMS53; details: 3H thymidine method, 72 h incubation; read-out: EC50, DMS53
Procedure: as §1, §2, §4

[12] = system: RPMI-8226; test: 3H thymidine proliferation assay, RPMI-8226; details: 3H thymidine method, 72 h incubation; read-out: EC50, RPMI-8226
Procedure: as §1, §2, §4

[13] = system: U-87 MG; test: 3H thymidine proliferation assay, U-87 MG; details: 3H thymidine method, 72 h incubation; read-out: EC50, U-87 MG
Procedure: as §1, §2, §4

[14] = system: 786-O; test: ATP luminescence proliferation assay, 786-O; details: ATP luminescence, 786-O
Procedure: as §1, §2
FIGS. 12a and 12b show illustrative plots for ATP luminescence proliferation assays for a second set of compounds of this invention, against HL-60 and 786-O cells, respectively, with an incubation period of 72 h. FIGS. 12c and 12d show the plots for ^3H thymidine proliferation assays for the same set of compounds, again against HL-60 and 786-O cells, respectively, with a 72 h incubation period. In each instance, doxorubicin was used as a comparative compound.
as §3

[15] = system: SW-620; test: ATP luminescence proliferation assay, SW-620; details: ATP luminescence, SW-620, 96 h incubation; read-out: EC50 SW-620 (96 h)
Procedure: as §1, §2, §3

[16] = system: A549; test: 3H thymidine proliferation assay, A549; details: 3H thymidine method, 72 h incubation; read-out: EC50, A549
Procedure: as §1, §2, §4

[17] = system: UO-31; test: ATP luminescence proliferation assay, UO-31; details: ATP luminescence, UO-31, 48 h incubation; read-out: EC50 UO-31 (48 h)
Procedure: as §1, §2, §3

[18] = BT474, 48 h incubation, read-out: EC50 BT474 (48 h)
[19] = 72 h incubation, read-out: EC50 786-O (72 h)

Compound | EC50 [1] [nM] | EC50 [2] [nM] | EC50 [3] [nM] | EC50 [4] [nM] | EC50 [5] [nM] | EC50 [6] [nM] | EC50 [7, 18] [nM] | EC50 [8] [nM] | EC50 [9] [nM] | EC50 [10] [nM] | EC50 [11] [nM] | EC50 [12] [nM] | EC50 [13] [nM] | EC50 [14, 19] [nM] | EC50 [15] [nM] | EC50 [16] [nM] | EC50 ([7]; BT474, 72 h incubation, read-out: EC50 BT474 (72 h)) [nM] | EC50 [17] [nM] | EC50 ([14]; 48 h incubation, read-out: EC50 786-O (48 h)) [nM]
CC[C@H](C)[C@H](NC(=O)[C@H]1CCCCN1C)C(=O)N(C)[C@H](C[C@@H](OC(C)=O)c1nc(C(=O)N[C@@H](Cc2ccc(N)cc2)C(=O)O)cs1)C(C)C [Compound 56] | 5.7 | > 100 | > 100 | 29 | > 100 | > 100 | > 100 | > 100 | > 100 | > 100 | > 100 | > 100 | > 100 | > 100 | 28 | > 100 |  |  | 
CC[C@H](C)[C@H](NC(=O)[C@H]1CCCCN1C)C(=O)N(C)[C@H](C[C@@H](OC)c1nc(C(=O)N[C@@H](Cc2ccccc2)C(=O)OC)cs1)C(C)C [Compound 16] | 15 | > 100 | 8.9 | 19 | 44 | 18 | 19 | > 100 | > 100 | 3.1 | > 100 | 22 | > 100 | 36 | 29 | > 100 |  |  | 
CC[C@H](C)[C@H](NC(=O)[C@H]1CCCCN1C)C(=O)N(COC(=O)CC(C)C)[C@H](C[C@@H](OC(C)=O)c1nc(C(=O)N[C@@H](Cc2ccccc2)C[C@H](C)C(=O)O)cs1)C(C)C [Tub D, tubulysin D, reference compound] | 0.0051 | 0.51 | 0.032 | 0.15 | 0.039 | 0.029 |  | 0.038 | 1.7 | 0.013 | 0.21 | 0.037 | 0.014 |  | 0.0058 | 0.014 | 0.021 | 0.099 | 0.022
